Assay results from patent US20100204113A1, “USE OF STRESSCOPIN-RELATED PEPTIDE AS A THERAPEUTIC AGENT” (priority 2007, published 2010).
No end group written: not given here.

Key:
HepG2-2.2.15 cells = assay: Cytotoxicity in the HBV assay (dye uptake); type: cell-based; settings: peptide 10 micrograms per ml
MRC-5 cells = settings: human, 6 days
HIV-1IIIB = assay: HIV-1 antiviral assay (CPE reduction, MTS); type: cell-based; settings: peptide 10 micrograms per ml, 6 days post-infection
CEM-SS cells = assay: Cytotoxicity in the HIV-1 assay (cell viability, MTS); settings: peptide 10 micrograms per ml
in vitro [1] = settings: human, CEM-SS cells
[2] = tested on: Human Peripheral Blood Mononuclear Cells (PBMC); assay: T cell proliferation assay (PHA, 3H-thymidine); settings: peptide 10 micrograms per ml, 3H-thymidine incorporation
HCMV strain AD169 = assay: HCMV plaque reduction assay; settings: MRC-5 cells; peptide 10 micrograms per ml; 7-10 days
[3] = tested on: Human Peripheral Blood Mononuclear Cells (PBMC); assay: B cell proliferation assay (SAC plus Interleukin-2, 3H-thymidine); type: cell-based; settings: peptide 10 micrograms per ml, 3H-thymidine incorporation
[4] = tested on: hepatitis B virus (HBV) ayw strain; assay: HBV assay (secreted HBV DNA, TaqMan PCR); type: cell-based; settings: HepG2-2.2.15; peptide 10 micrograms per ml; six days; HBV DNA in supernatant
[5] = tested on: macrophages prepared from human PBMC; assay: TNF alpha production assay (LPS-stimulated macrophages, ELISA); type: cell-based; settings: peptide 10 micrograms per ml, 30 min preincubation, lipopolysaccharide 200 ng/ml overnight
Excerpt: Not stimulated macrophages served as negative background control.

in vitro [6] = settings: human, MRC-5 cells
spleen cells = assay: Th1/Th2 cytokine profiling assay (Ovalbumin restimulation, CBA kit); type: cell-based, Balb/c mice; settings: peptide 10 micrograms per ml, 72 hours
Pseudomonas aeruginosa = type: cell-based; settings: 5 micrograms per ml
[7] = Cytotoxicity in the HBV assay (dye uptake); type: cell-based; settings: human, HepG2-2.2.15 cells, peptide 10 micrograms per ml, read-out: % Cell Viability
A549 cells [8] = assay: Cell cycle assay (propidium iodide, FACS); type: cell-based, human; settings: peptide 10 micrograms per ml, 24 hours
Excerpt: The cell cycle consists of four distinct phases: […]

MRSA = settings: 5 micrograms per ml
A549 cells [9] = assay: Apoptosis prevention assay (C2 ceramide, Annexin-5); type: cell-based, human; settings: 30 min pretreatment with peptide 10 micrograms per ml, then C2 ceramide
HUVEC = assay: Endothelial tube formation assay; type: cell-based, human; settings: peptide 10 micrograms per ml, 20 hours
Excerpt: Positive control was vehicle only.

[10] = tested on: Primary Human endothelial cells (HUVEC); assay: Endothelial cell migration assay; type: cell-based; settings: peptide 10 micrograms per ml, 22 hours
Streptococcus pneumoniae = type: cell-based; settings: 5 micrograms per ml
A549 cells [11] = assay: Apoptosis induction assay (Annexin-5); type: cell-based, human; settings: peptide 10 micrograms per ml, 24 hours
Excerpt: Human A549 cells (carcinomic human alveolar basal epithelial cells) were utilized in the experiments employing the Annexin-5 apoptosis assay.

RAW 264.7 cells = assay: Phagocytosis assay (Fluorescein-labeled Escherichia coli, flow cytometry); type: cell-based, mouse; settings: peptide 10 micrograms per ml, 30 min preincubation, 60 min ingestion

Nc1ccn([C@@H]2CS[C@H](CO)O2)c(=O)n1 [3TC, Lamivudine, reference compound]
% Cell viability (HepG2-2.2.15 cells): 95.8%

Nc1nc(O)c2ncn(COC(CO)CO)c2n1 [Ganciclovir]
% Cell viability (MRC-5 cells): 100%

Cc1cn([C@H]2C[C@H](N=[N+]=[N-])[C@@H](CO)O2)c(=O)[nH]c1=O [AZT, reference compound]
% CPE reduction in HIV-1 infected CEM-SS cells (HIV-1IIIB): 99% | % Cell viability (CEM-SS cells): 97%

HPGSRIVLSLDVPIGLLQILLEQARARAAREQATTNARILARV-NH2 [Stresscopin-related peptide]
viability at 10 micrograms per ml (in vitro [1]): 100% | % of PHA induced control [2]: 92.6% | % plaque reduction (HCMV strain AD169): 0.0% | % of SAC/IL2 induced control [3]: 91.4% | % inhibition of HBV replication in HEP G2 cells [4]: 0.0% | % of LPS induction [5]: 117.0% | viability at 144 h, 10 micrograms per ml (in vitro [6]): 100% | % CPE reduction in HIV-1 infected CEM-SS cells (HIV-1IIIB): 0.0% | IFNγ spleen cells; TH1 response (% of control) (spleen cells): 105.6 % of control | IL-2 spleen cells (% of control) (spleen cells): 66.8 % of control | IL-4 spleen cells; TH2 response (% of control) (spleen cells): 68.9 % of control | IL-5 spleen cells; TH2 response (% of control) (spleen cells): 67.0 % of control | TNF-a spleen cells; TH1 response (% of control) (spleen cells): 125.6 % of control | % inhibition (Pseudomonas aeruginosa): 0.0% | viability at 144 h, 10 micrograms per ml [7]: 100% | Cell cycle analysis G0/G1 (A549 cells [8]): 56.9 | Cell cycle analysis G2/M (A549 cells [8]): 9.7 | Cell cycle analysis S (A549 cells [8]): 33.4 | % inhibition (MRSA): 0.0% | % prevention of ceramide induced apoptosis (A549 cells [9]): 0.0% | % inhibition of tube formation (HUVEC): 35% | % inhibition of migration [10]: 15% | % inhibition (Streptococcus pneumoniae): 0.0% | % of induction (A549 cells [11]): 1.2% | % of control phagocytosis (RAW 264.7 cells): 131.4%
